Key:
[1] = tested on: LTB4 production from human neutrophil; test: Activity against LTB4 production from human neutrophil; assay type: cell-based; settings: human peripheral blood neutrophils, preincubated 37° C. 5 minutes, calcium ionophore A23187 2 μg/ml, 10 minutes, radioimmunoassay, read-out: Inhibitory activity against LTB4 production from human neutrophil IC50
Procedure: Activity against LTB4 production from human neutrophil
A test compound was added to a suspension of neutrophil separated from the human peripheral blood and the obtained mixture was preincubated at 37° C. for 5 minutes, followed by the addition of calcium ionophore A23187 in an amount of 2 μg/ml. After 10 minutes, the obtained mixture was cooled to stop the reaction. The amount of LTB4 contained in the supernatant of the reaction mixture was determined by radioimmunoassay (see H. Shirota et al., Arzneim Forsol Drug Res., 37 (1987) 930).

[2] = tested on: PGE2 production from synovial cells of rat; test: Activity against the PGE2 production from cultured synovial cell of rat; assay type: cell-based, rat (Lewis male); settings: 24 h, cultured rat synovial cells stimulated with neutrophil-originating factor (IL-1-like factor), PGE2 after one day by radioimmunoassay, read-out: Inhibitory activity against PGE2 production from synovial cells of rat IC50
Procedure: Activity against the PGE2 production from cultured synovial cell of rat
A synovial membrane taken out of the knee joint of a Lewis male rat was treated with collagenase-trypsin to separate off synovial cells. A test compound was added to a system prepared by the subculture of the synovial cells. The cells were stimulated with a neutrophil-originating factor (IL-1-like factor) to induce PGE2 production. After one day, the amount of PGE2 liberated into the culture medium was determined by radioimmunoassay (see R. Hashida et al., Prostaglandins, 27 (1984), 697).

C=CC/C=C(\C(=O)O)c1cc(OC)c(O)c2c(Cc3ccccc3)cccc12 [Example 5, (Z)-2-(5-Benzyl-4-hydroxy-3-methoxy-1-naphthyl)-2,5-hexadienoic acid]
IC50 [1]: 510 nM
IC50 [2]: 1640 nM

COc1cc(/C(=C/c2ccccc2)C(=O)O)c2cccc(Cc3ccccc3)c2c1O [Example 10, (Z)-2-(5-benzyl-4-hydroxy-3-methoxy-1-naphthyl)-3-phenyl-2-propenoic acid]
IC50 [1]: 1860 nM
IC50 [2]: 2100 nM

COc1cc(C(C(=O)O)=C(C)C)c2cccc(Cc3ccccc3)c2c1O [Example 15, 2-(5-benzyl-4-hydroxy-3-methoxy-1-naphthyl)-3-methyl-2-butenoic acid]
IC50 [1]: 730 nM
IC50 [2]: 1070 nM

COc1cc(C(C(=O)O)=C(Cl)Cl)c2cccc(Cc3ccccc3)c2c1O [Example 55, 2-(5-Benzyl-4-hydroxy-3-methoxy-1-naphthyl)-3,3-dichloro-2-propenoic acid]
IC50 [1]: 2350 nM
IC50 [2]: 280 nM

COc1cc(/C(=C/C(C)(C)C)C(=O)O)c2cccc(Cc3ccccc3)c2c1O [Example 13, (Z)-2-(5-benzyl-4-hydroxy-3-methoxy-1-naphthyl)-4,4-dimethyl-2-pentenoic acid]
IC50 [1]: 830 nM
IC50 [2]: 3350 nM

CCC/C=C(\C(=O)O)c1cc(OC)c(O)c2c(Cc3ccccc3)cccc12 [Example 3, (Z)-2-(5-Benzyl-4-hydroxy-3-methoxy-1-naphthyl)-2-hexenoic acid]
IC50 [1]: 520 nM
IC50 [2]: 1450 nM

C/C=C(/C(=O)O)c1cc(OC)c(O)c2c(Cc3ccccc3)cccc12 [Example 40, (E)-2-(5-Benzyl-4-hydroxy-3-methoxy-1-naphthyl)-2-butenoic acid]
IC50 [1]: 3160 nM
IC50 [2]: 2040 nM

COc1cc(/C(=C/C(C)C)C(=O)O)c2cccc(Cc3ccccc3)c2c1O [Example 4, (Z)-2-(5-Benzyl-4-hydroxy-3-methoxy-1-naphthyl)-4-methyl-2-pentenoic acid]
IC50 [1]: 1680 nM
IC50 [2]: 2760 nM

COc1cc(/C(=C/Cc2ccccc2)C(=O)O)c2cccc(Cc3ccccc3)c2c1O [Example 11, (Z)-2-(5-benzyl-4-hydroxy-3-methoxy-1-naphthyl)-4-phenyl-2-butenoic acid]
IC50 [1]: 1090 nM
IC50 [2]: 1880 nM

CCCC/C=C(\C(=O)O)c1cc(OC)c(O)c2c(Cc3ccccc3)cccc12 [Example 7, (Z)-2-(5-benzyl-4-hydroxy-3-methoxy-1-naphthyl)-2-heptenoic acid]
IC50 [1]: > 10000 nM
IC50 [2]: 3100 nM

CC/C=C(\C(=O)O)c1cc(OC)c(O)c2c(Cc3ccccc3)cccc12 [Example 2, (Z)-2-(5-Benzyl-4-hydroxy-3-methoxy-1-naphthyl)-2-pentenoic acid]
IC50 [1]: 320 nM
IC50 [2]: 620 nM

COc1cc(/C(=C/C2CCCCC2)C(=O)O)c2cccc(Cc3ccccc3)c2c1O [Example 12, (Z)-2-(5-benzyl-4-hydroxy-3-methoxy-1-naphthyl)-3-cyclohexyl-2-propenoic acid]
IC50 [1]: 10000 nM
IC50 [2]: 3540 nM

C=C(C(=O)O)c1cc(OC)c(O)c2c(Cc3ccccc3)cccc12 [Example 14, 2-(5-benzyl-4-hydroxy-3-methoxy-1-naphthyl)-2-propenoic acid]
IC50 [1]: 720 nM
IC50 [2]: 3230 nM

C/C=C(\C(=O)O)c1cc(OC)c(O)c2c(Cc3ccccc3)cccc12 [Example 1, (Z)-2-(5-Benzyl-4-hydroxy-3-methoxy-1-naphthyl)-2-butenoic acid]
IC50 [1]: 510 nM
IC50 [2]: 420 nM

Reference: patent US5319139A, “Naphthalene derivatives” (Eisai Co. Ltd., priority 1990, dated 1994)
